Experimental data taken from US20180081270A1, “RADIATION-SENSITIVE COMPOSITION, AMORPHOUS FILM, AND METHOD FOR FORMING RESIST PATTERN” (Mitsubishi Gas Chemical Company, Inc., priority 2015, published 2018).

How the values were obtained:
[1] = 10% thermal reduction temperature by thermogravimetry (TG); assay type: physicochemical; settings: 10° C./min to 500° C., nitrogen gas stream
Method: “EXSTAR 6000 DSC apparatus” manufactured by SII NanoTechnology Inc. was used. About 5 mg of a sample was placed in an unsealed container made of aluminum, and the temperature was raised to 500° C. at a temperature increase rate of 10° C./min in a nitrogen gas (30 mL/min) stream. In this operation, 10% thermal reduction temperature was measured.

[2] = Solubility in PGME and PGMEA at 23° C.; assay type: physicochemical; settings: for solubility in PGME and PGMEA (dissolution amount): 1-methoxy-2-propanol (PGME) and propylene glycol monomethyl ether acetate (PGMEA)
Method: The dissolution amount of the compound in 1-methoxy-2-propanol (PGME) and propylene glycol monomethyl ether acetate (PGMEA) was measured at 23° C., and the results were evaluated according to the following criteria.
Evaluation A: 20% by mass or more Evaluation B: 10% by mass or more and less than 20% by mass Evaluation C: less than 10% by mass

| SMILES | 10% thermal reduction temperature [1] | solubility in PGME and PGMEA (dissolution amount) [2] | solubility in PGME and PGMEA (evaluation) [2] |
| --- | --- | --- | --- |
| Oc1ccc(-c2ccc(O)c(C(c3ccc(I)cc3)c3cc(-c4ccc(O)cc4)ccc3O)c2)cc1 [BiF-I-1] | ≥ 400 °C | ≥ 30 % by mass | A (Evaluation A: 20% by mass or more) |
| COc1cc(C(c2cc(-c3ccc(O)cc3)ccc2O)c2cc(-c3ccc(O)cc3)ccc2O)cc(O)c1I [BiF-I-2] | ≥ 400 °C | ≥ 30 % by mass | A (Evaluation A: 20% by mass or more) |
| Oc1ccc(-c2ccc(O)c(C(c3cccc(I)c3)c3cc(-c4ccc(O)cc4)ccc3O)c2)cc1 [BiF-I-3] | ≥ 300 °C | ≥ 30 % by mass | A (Evaluation A: 20% by mass or more) |
